Laboratory results from PMC8868285, “Pharmacological Inhibition of Epac1 Averts Ferroptosis Cell Death by Preserving Mitochondrial Integrity” (Antioxidants, 2022).

Key:
HT-22 cells [1] = experiment: Extracellular flux analysis (Seahorse), oxygen consumption rate; assay type: cell-based, mouse
Experimental: Cellular Oxygen Consumption Rate (OCR) was measured by using an XFe96 extracellular flux analyzer (Seahorse Bioscience, Billerica, MA, USA) which also entailed the mitochondrial stress test as described previously. HT-22 cells (10,000 cells/well) were seeded onto the XFe96-well cell culture microplate and incubated at 37 °C, 5% CO2. 24 h before the assay, the growth medium was replaced with a fresh medium containing either DMSO 1%, erastin 1 µM, CE3F4 alone, ESI-05 alone or a co-treatment of erastin with either CE3F4 or ESI-05. Cells in 180 μL of assay non-buffered DMEM medium supplemented with 2 mM glutamine, 4.5 g/L glucose and 1 mM pyruvate, pH 7.35 were incubated for 1 h in a CO2 free incubator at 37 °C. Basal respiration was measured before injecting the inhibitors that included; oligomycin (4 μM; port A)—an ATP synthase inhibitor; 2,4-dinitrophenol (DNP) (Sigma–Aldrich Chemie GmbH, Steinheim, Germany, #34334) (50 μM; port B)—a mitochondrial oxidative phosphorylation uncoupler; and rotenone (Sigma–Aldrich Chemie GmbH, Steinheim, Germany, #R8875) together with antimycin A (Sigma–Aldrich Chemie GmbH, Steinheim, Germany, #A8674) 0.1 μM and 1 μM; port C)—complex I and complex III inhibitors. By using the BCA assay, OCR measurements were normalized to the protein amount in every well. Three independent experiments with six wells per condition were performed, and a one-way ANOVA test was used to determine statistical significance among different groups.

HT-22 cells [2] = experiment: Mitochondrial superoxide, MitoSOX FACS
Experimental: (§1) Flow cytometry analysis using the CytoFLEXS benchtop flow cytometer (Beckman Coulter Life Sciences, Indianapolis, IN, USA) was used to evaluate intracellular parameters that are associated with not only oxidative stress but also mitochondrial dysfunction, and cell death. HT-22 cells (40,000 cells/well) seeded in 24-well plates were treated with various conditions. Treatment groups included: control condition (DMSO 1%), erastin 1 µM or 1.5 µM, CE3F4 100 µM, and co-treatment of erastin and CE3F4. Three separate wells were analyzed for each condition and the same number of counts (10,000/well) were measured by flow cytometry. At least three independent experiments were performed, and the Kaluza Analysis 1.5 software was employed for quantification of data.
MitoSOX dye (Invitrogen, Oregon City, OR, USA, #M36008, Lot#1924466) was used to evaluate mitochondrial ROS. The MitoSOX dye is able to permeate live cells and also selectively target mitochondria where it is swiftly oxidized by superoxides but not by other reactive oxygen species. […] Incubation of HT-22 cells with MitoSOX™ 1.25 μM dye was done for 30 min at 37 °C. Fluorescence excitation and detection were done at 488 nm and 690/50 nm respectively.

HT-22 cells [3] = experiment: xCELLigence real-time cell impedance measurement; assay type: cell-based, mouse; settings: ≥30 µM CE3F4 (30 and 100 μM), erastin 1 μM
Experimental: Cell viability and metabolic activity of cells was first assessed using a colorimetric 3-(4,5-dimethylthiazol-2-yl)-2,5-diphenyltetrazolium Bromide (MTT) (Sigma–Aldrich Chemie GmbH, Steinheim, Germany, #M5655) reduction assay. Cells in a 96-well plate format (8–10,000 cells/well) were incubated with the MTT solution (0.5 mg/mL) for a maximum of 1 h at 37 °C. Afterward, the MTT-containing solution was entirely removed, and the 96-well plate was incubated at −80 °C for at least 2 h. To allow formazan to uniformly disperse in the medium, dimethyl sulfoxide (DMSO) (Sigma–Aldrich Chemie GmbH, Steinheim, Germany, #D8418, Lot# SHBH9942) was administered to the cells for 1 h at 37 °C with continuous shaking. The absorbance values were determined by Synergy™H1 (Bad Friedrichshall, Germany) Hybrid MultiMode Reader at 570 nm with a 630 nm reference filter. The absorbance values of untreated healthy cells or cells treated with DMSO 1% (used as a solvent for various pharmacological applications) were regarded as 100% of cell viability. […] HT-22 cells were treated with the following conditions: control condition (solvent), drug of interest, erastin, and pre- or co-treatment with erastin and drug of interest. […] Continuous cell monitoring was performed by using an E-plate 96 and the cellular impedance or cell resistance was assessed every 15 min for 24 h.

HT-22 cells [4] = experiment: Brightfield images of cell morphology; assay type: cell-based, mouse; settings: 100 μM CE3F4 + erastin 1 μM
HT-22 cells [5] = experiment: Mitochondrial morphology (MitoTracker Deep Red, categories I-III); assay type: cell-based, mouse
Experimental: Mitochondrial morphology was assessed using imaging of HT-22 cells stained with MitoTracker™Deep Red FM (Invitrogen, Oregon City, OR, USA, #M22426). Cells were treated with either erastin 1 µM, CE3F4 100 µM, or co-treated with erastin 1 µM and CE3F4 100 μM for 18 h. After the treatment, cells were incubated with 200 nM MitoTracker™Deep Red FM for 30 min at 37 °C. Untreated cells were included as controls. 4% paraformaldehyde (PFA) was used for fixation and detection of the MitoTracker fluorescence was achieved by 620 nm (excitation) and 700 ± 75 nm (detection). 500 cells per condition were counted and grouped into three different categories, based on their mitochondrial morphology/shape. The analysis and categorization of mitochondria was done by an investigator without previous knowledge of the various experimental conditions. Category I included healthy cells with mitochondria that form an elongated tubular network that is distributed equally throughout the cytosol. It could also include short mitochondria, but distributed in the cytosol. On the other hand, Category II included cells which contained large, and fragmented/granulated mitochondria around the nucleus. […] Category III represented damaged and dying cells with observed small rounded mitochondria of varying sizes and in proximity to the nucleus.. At least three independent experiments were performed.

HT-22 cells [6] = experiment: Mitochondrial membrane potential, TMRE FACS; settings: for effect on erastin-induced ΔΨm loss: no significant difference to control
Experimental: as §1
Staining with TMRE™ dye (tetramethylrhodamine-ethyl ester; Invitrogen, Oregon City, OR, USA, #T669) was used to determine loss of mitochondrial membrane potential (MMP) (ΔΨm). […] Collected cells were incubated for 20 min with TMRE 0.2 μM at 37 °C. Fluorescence excitation and detection were done at 488 nm 690/50 nm respectively.

HT-22 cells [7] = experiment: Cell death assessment, FACS analysis of PI staining
Experimental: as §1
The amount of cell death after stimulation with erastin for 16–17 h was assessed by incubating trypsonized HT-22 cell suspension with propidium iodide (PI) (Invitrogen, Oregon City, OR, USA, #V13242, Lot #2008168) in a binding buffer. Incubation with the dye was for 30 min at RT. Fluorescence was detected at 494/518 and 535/617 for FITC and PI respectively.

HT-22 cells [8] = experiment: Lipid peroxidation, BODIPY FACS; settings: 100 μM CE3F4 + erastin 1 μM
Experimental: as §1
The staining dye BODIPY 2 μM (Invitrogen, Karlsruhe, Germany, # D3861, Lot # 1890330) was used to estimate lipid peroxidation. Erastin treatment was done for 4 h. HT-22 cells were then stained for 30 min at RT, followed by a one-time wash with PBS and finally analyzed. Fluorescence excitation and detection were done at 488 nm and 530 nm respectively.

Epac1 = settings: CE3F4, Epac1 inhibitor; cited from earlier work
[9] = CE3F4 + erastin 1 μM vs erastin alone

CC1CCc2c(cc(Br)c(F)c2Br)N1C=O (centres unmarked) [CE3F4]
maximal respiration (HT-22 cells [1]; 100 μM CE3F4 alone): increased maximal respiration | ATP-linked OCR (HT-22 cells [1]; [9]): did not reach statistical significance | basal OCR (HT-22 cells [1]; [9]): did not reach statistical significance | maximal OCR (HT-22 cells [1]; [9]): significantly increased | mitochondrial superoxide levels (HT-22 cells [2]; 30 μM CE3F4 alone): shift towards the intermediate mitochondrial superoxide | mitochondrial superoxide levels (intermediate) (HT-22 cells [2]; 100 μM CE3F4 alone, compared with 30 μM): further increased | effect on erastin-mediated mitochondrial superoxide levels (HT-22 cells [2]; CE3F4 30 μM + erastin 1 μM): did not affect erastin-mediated effects on mitochondrial superoxide levels | effect on erastin-mediated mitochondrial superoxide levels (HT-22 cells [2]; CE3F4 100 μM + erastin): significantly attenuated the increase in high mitochondrial superoxide levels | protection against erastin-induced cell death (cell impedance) (HT-22 cells [3]): markedly prevented erastin-induced cell death | effect on erastin-induced alteration in cell morphology (HT-22 cells [4]): prevented | mitochondrial morphology, category III (HT-22 cells [5]; 30 µM CE3F4 + erastin 1 μM vs erastin alone): significant decrease of category III mitochondrial fragmentation | mitochondrial morphology (HT-22 cells [5]; 100 μM CE3F4 + erastin 1 μM): completely abolished the effects of erastin on mitochondrial morphology | mitochondrial morphology (HT-22 cells [5]; CE3F4 alone (100 µM)): did not alter mitochondrial morphology | effect on erastin-induced ΔΨm loss (HT-22 cells [6]; 100 µM CE3F4 + erastin 1 μM): significantly attenuated ΔΨm loss | effect on erastin-induced ΔΨm loss (HT-22 cells [6]; 100 µM CE3F4 + erastin 1.5 μM): significantly attenuated ΔΨm loss | mitochondrial membrane potential (ΔΨm) (HT-22 cells [6]; CE3F4 alone): slight hyperpolarization | effect on erastin-induced cell death (PI staining) (HT-22 cells [7]; co-treatment 30 μM CE3F4 + erastin 1 μM): markedly attenuated | effect on erastin-induced cell death (PI staining) (HT-22 cells [7]; co-treatment 100 μM CE3F4 + erastin 1 μM): markedly attenuated | effect on erastin-induced lipid peroxidation (HT-22 cells [8]): significantly attenuated | IC50 (Epac1): 23 ± 3 µM
